Blank lines part the entries; values can stand above or below the molecule they belong to.
Columns and labels:
[1] = Stability in liver microsomes, human; conditions: for AUC / AUC Mono (treprostinil formed) / CLint / Half-life: human
[2] = Stability in liver microsomes, dog; conditions: for AUC Mono (treprostinil formed) / CLint / Half-life: dog
[3] = Stability in cryopreserved hepatocytes, dog; conditions: for AUC / Mono AUC (treprostinil formed) / CLint / Half-life: dog
[4] = Stability in liver microsomes, rat; conditions: for CLint, calculated (in parentheses) / Half-life, calculated (in parentheses) / CLint / Half-life: microsomes; for AUC Mono (treprostinil formed) / CLint / Half-life: rat
[5] = molecular target: prostaglandin I2 (PGI2) receptor (IP) (Homo sapiens, UniProt P43119); test: IP receptor cAMP agonist assay (CHO-K1 cells); assay type: cell-based; set-up: key to EC50 Fold Different from Treprostinil, IP Receptor: NC = too inactive to realistically calculate; conditions: for Activity at the IP receptor compared to treprostinil: summary of findings; for IP Relative to Tre: Table 22, relative to treprostinil EC50 values, * partial agonists or ambiguous dose-response curves
prostaglandin I2 (PGI2) receptor (IP), sequence (P43119 whole entry): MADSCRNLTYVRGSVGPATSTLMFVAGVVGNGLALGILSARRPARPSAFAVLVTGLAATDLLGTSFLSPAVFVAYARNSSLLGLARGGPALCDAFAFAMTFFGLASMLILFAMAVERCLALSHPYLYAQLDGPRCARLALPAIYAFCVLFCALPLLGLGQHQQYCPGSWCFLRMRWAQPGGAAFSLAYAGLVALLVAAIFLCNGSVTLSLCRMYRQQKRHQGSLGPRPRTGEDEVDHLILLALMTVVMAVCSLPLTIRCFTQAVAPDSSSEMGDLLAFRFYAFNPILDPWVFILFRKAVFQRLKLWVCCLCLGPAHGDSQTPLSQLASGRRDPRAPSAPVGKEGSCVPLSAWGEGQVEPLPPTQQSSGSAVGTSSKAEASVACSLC
Method: Cyclic AMP assay kit: Multiscreen™ TR-FRET cAMP 1.0 No Wash Assay Kit (Multispan, Inc.)
Cells were thawed from frozen cells and resuspended in assay buffer at desired concentrations. cAMP or Calcium assays were performed according to the manufacturer's protocol using Multiscreen™ TR-FRET cAMP 1.0 No Wash Assay Kit or Multiscreen™ Calcium 1.0 No Wash Kit.
Gas Cyclic AMP (cAMP) Assay: In agonist mode testing, cells were seeded in a 384-well plate at an appropriate density and then were treated with compounds and incubated at 37° C. for 20 minutes. The reaction was terminated by […] trFluor™ Eu-labeled cAMP and trFluor™ 650-labeled anti-cAMP antibody in lysis buffer. […] All testing wells contained 0.1% DMSO in the final concentrations.
Data in graphs are represented in Mean±SD. Dose-dependent responses were fitted with sigmoidal dose-response curves allowing variable slopes using GraphPad Prism version 6 (Graphpad Prism).
These studies used cell lines overexpressing either human IP, EP2 or DP1, or EP1 receptors, and following incubation with varying concentrations of compounds, cAMP levels were measured using Fluorescence Resonance Energy Transfer (FRET).

Structure (SMILES): CCCCCC(CCC1C(OC(=O)OC)CC2Cc3c(cccc3OCC(=O)O)CC21)OC(=O)OC (stereo not drawn) [Prodrug LXXI, treprostinil dicarbonate]
AUC [1]: 10.56 µmol·min/L
AUC Mono (treprostinil formed) [1]: 10.6 µmol·min/L
CLint ([1]; microsomes): > 0.139 mL/min/mg protein
Half-life ([1]; microsomes): < 10 min
CLint, calculated (in parentheses) ([1]; microsomes): 0.189 mL/min/mg protein
Half-life, calculated (in parentheses) ([1]; microsomes): 7.32 min
AUC Mono (treprostinil formed) [2]: 56.2 µmol·min/L
CLint ([2]; microsomes): > 0.139 mL/min/mg protein
Half-life ([2]; microsomes): < 10 min
CLint, calculated (in parentheses) ([2]; microsomes): 0.454 mL/min/mg protein
Half-life, calculated (in parentheses) ([2]; microsomes): 3.05 min
AUC [3]: 41.47 µmol·min/L
Mono AUC (treprostinil formed) [3]: 41.5 µmol·min/L
CLint ([3]; hepatocytes): > 0.0308 mL/min/mg protein
Half-life ([3]; hepatocytes): < 15 min
CLint, calculated (in parentheses) ([3]; hepatocytes): 0.187 mL/min/mg protein
Half-life, calculated (in parentheses) ([3]; hepatocytes): 2.47 min
CLint, calculated (in parentheses) [4]: 0.575 mL/min/mg protein
Half-life, calculated (in parentheses) [4]: 2.41 min
AUC Mono (treprostinil formed) [4]: 33.5 µmol·min/L
CLint [4]: > 0.139 mL/min/mg protein
Half-life [4]: < 10 min
Activity at the IP receptor compared to treprostinil [5]: inactive

Structure (SMILES): CCCCCC(CCC1C(O)CC2Cc3c(cccc3OCC(=O)O)CC21)OP(=O)(O)O (stereo not drawn) [Prodrug VI]
Treprostinil Concentration 0 min [1]: 0.02 µM
Treprostinil Concentration 15 min [1]: 0.038 µM
Treprostinil Concentration 30 min [1]: 0.038 µM
Treprostinil Concentration 60 min [1]: 0.03 µM
Treprostinil Concentration 120 min [1]: 0.061 µM
AUC Mono (treprostinil formed) [1]: 2.4 µmol·min/L
Treprostinil Concentration 0 min [2]: 0.21 µM
Treprostinil Concentration 15 min [2]: 0.32 µM
Treprostinil Concentration 30 min [2]: 0.43 µM
Treprostinil Concentration 60 min [2]: 0.48 µM
Treprostinil Concentration 120 min [2]: 0.75 µM
AUC Mono (treprostinil formed) [2]: 29.4 µmol·min/L
Treprostinil Concentration 15 min [3]: 0.581 µM
Treprostinil Concentration 120 min [3]: 0.548 µM
Mono AUC (treprostinil formed) [3]: 62.9 µmol·min/L
Treprostinil Concentration 0 min [4]: 0.27 µM
Treprostinil Concentration 15 min [4]: 0.39 µM
Treprostinil Concentration 30 min [4]: 0.46 µM
Treprostinil Concentration 60 min [4]: 0.53 µM
Treprostinil Concentration 120 min [4]: 0.73 µM
AUC Mono (treprostinil formed) [4]: 31.4 µmol·min/L
IP Relative to Tre [5]: 5x
IP Relative to Tre ([5]; listed as Prodrug VI repeat): 1.5x

Structure (SMILES): CCCCCC(CCC1C(OC(=O)CC)CC2Cc3c(cccc3OCC(=O)O)CC21)OC(=O)CC (stereo not drawn) [Prodrug LXX, treprostinil dipropionate]
Trep Concentration 0 min [1]: 1.18 µM
Trep Concentration 10 min [1]: 0.903 µM
Trep Concentration 20 min [1]: 0.602 µM
Trep Concentration 30 min [1]: 0.538 µM
Trep Concentration 60 min [1]: 0.381 µM
Treprostinil Concentration 0 min [1]: 1.18 µM
Treprostinil Concentration 15 min [1]: 0.903 µM
Treprostinil Concentration 30 min [1]: 0.602 µM
Treprostinil Concentration 60 min [1]: 0.538 µM
Treprostinil Concentration 120 min [1]: 0.381 µM
AUC [1]: 37.43 µmol·min/L
AUC Mono (treprostinil formed) [1]: 37.4 µmol·min/L
CLint ([1]; microsomes): >0.139 mL/min/mg protein
Half-life ([1]; microsomes): <10 min
Trep Concentration 0 min [2]: 1.24 µM
Trep Concentration 10 min [2]: 1.26 µM
Trep Concentration 20 min [2]: 1.24 µM
Trep Concentration 30 min [2]: 1.23 µM
Trep Concentration 60 min [2]: 1.07 µM
Treprostinil Concentration 0 min [2]: 1.24 µM
Treprostinil Concentration 15 min [2]: 1.26 µM
Treprostinil Concentration 30 min [2]: 1.24 µM
Treprostinil Concentration 60 min [2]: 1.23 µM
Treprostinil Concentration 120 min [2]: 1.07 µM
AUC Mono (treprostinil formed) [2]: 71.9 µmol·min/L
CLint ([2]; microsomes): >0.139 mL/min/mg protein
Half-life ([2]; microsomes): <10 min
Trep Concentration (μM) 0 min [3]: 0.0959 µM
Trep Concentration (μM) 30 min [3]: 0.597 µM
Trep Concentration (μM) 60 min [3]: 0.511 µM
Trep Concentration (μM) 120 min [3]: 0.445 µM
Treprostinil Concentration 15 min [3]: 0.736 µM
Treprostinil Concentration 120 min [3]: 0.445 µM
AUC [3]: 61.54 µmol·min/L
Mono AUC (treprostinil formed) [3]: 61.5 µmol·min/L
CLint ([3]; hepatocytes): >0.0308 mL/min/mg protein
Half-life ([3]; hepatocytes): <15 min
Trep Concentration 0 min [4]: 0.336 µM
Trep Concentration 10 min [4]: 0.595 µM
Trep Concentration 20 min [4]: 0.764 µM
Trep Concentration 30 min [4]: 0.653 µM
Trep Concentration 60 min [4]: 0.699 µM
Treprostinil Concentration 0 min [4]: 0.336 µM
Treprostinil Concentration 15 min [4]: 0.595 µM
Treprostinil Concentration 30 min [4]: 0.764 µM
Treprostinil Concentration 60 min [4]: 0.653 µM
Treprostinil Concentration 120 min [4]: 0.699 µM
CLint, calculated (in parentheses) [4]: 0.250 mL/min/mg protein
Half-life, calculated (in parentheses) [4]: 5.53 min
AUC Mono (treprostinil formed) [4]: 38.8 µmol·min/L
CLint [4]: > 0.139 mL/min/mg protein
Half-life [4]: < 10 min
EC50 Fold Different from Treprostinil, IP Receptor ([5]; Table 18, * partial agonists or odd dose-response curves): NC
Activity at the IP receptor compared to treprostinil [5]: inactive

Further lines, results first:

Treprostinil Concentration 0 min [1]: 0.883 µM
Treprostinil Concentration 15 min [1]: 0.681 µM
Treprostinil Concentration 30 min [1]: 0.602 µM
Treprostinil Concentration 60 min [1]: 0.513 µM
Treprostinil Concentration 120 min [1]: 0.341 µM
AUC Mono (treprostinil formed) [1]: 32.6 µmol·min/L
Treprostinil Concentration 0 min [2]: 0.964 µM
Treprostinil Concentration 15 min [2]: 0.917 µM
Treprostinil Concentration 30 min [2]: 0.899 µM
Treprostinil Concentration 60 min [2]: 0.932 µM
Treprostinil Concentration 120 min [2]: 0.873 µM
AUC Mono (treprostinil formed) [2]: 54.7 µmol·min/L
Treprostinil Concentration 15 min [3]: 0.628 µM
Treprostinil Concentration 120 min [3]: 0.4 µM
Mono AUC (treprostinil formed) [3]: 54.0 µmol·min/L
Treprostinil Concentration 0 min [4]: 0.035 µM
Treprostinil Concentration 15 min [4]: 0.0741 µM
Treprostinil Concentration 30 min [4]: 0.111 µM
Treprostinil Concentration 60 min [4]: 0.145 µM
Treprostinil Concentration 120 min [4]: 0.206 µM
AUC Mono (treprostinil formed) [4]: 8.0 µmol·min/L
IP Relative to Tre [5]: 632x
Structure (SMILES): CCCCCC(CCC1C(O)CC2Cc3c(cccc3OCC(=O)O)CC21)OC(C)=O (stereo not drawn) [Prodrug XLIII]

Treprostinil Concentration 0 min [1]: 1.17 µM
Treprostinil Concentration 15 min [1]: 1.01 µM
Treprostinil Concentration 30 min [1]: 0.837 µM
Treprostinil Concentration 60 min [1]: 0.736 µM
Treprostinil Concentration 120 min [1]: 0.389 µM
AUC Mono (treprostinil formed) [1]: 44.9 µmol·min/L
Treprostinil Concentration 0 min [2]: 0.971 µM
Treprostinil Concentration 15 min [2]: 0.961 µM
Treprostinil Concentration 30 min [2]: 0.934 µM
Treprostinil Concentration 60 min [2]: 0.915 µM
Treprostinil Concentration 120 min [2]: 0.743 µM
AUC Mono (treprostinil formed) [2]: 53.3 µmol·min/L
Treprostinil Concentration 15 min [3]: 0.781 µM
Treprostinil Concentration 120 min [3]: 0.53 µM
Mono AUC (treprostinil formed) [3]: 71.2 µmol·min/L
Treprostinil Concentration 0 min [4]: 0.26 µM
Treprostinil Concentration 15 min [4]: 0.43 µM
Treprostinil Concentration 30 min [4]: 0.525 µM
Treprostinil Concentration 60 min [4]: 0.586 µM
Treprostinil Concentration 120 min [4]: 0.553 µM
AUC Mono (treprostinil formed) [4]: 30.9 µmol·min/L
IP Relative to Tre [5]: 54x
Structure (SMILES): CCCCCC(CCC1C(O)CC2Cc3c(cccc3OCC(=O)O)CC21)OC(=O)CC (stereo not drawn) [Prodrug LV]

— patent US12491170B2, “Stable treprostinil prodrugs” (United Therapeutics Corporation, priority 2020, dated 2025)
